Reference: patent US20250282871A1, “PHARMACEUTICAL COMBINATION AND USE THEREOF” (TIANJIN LIPOGEN TECHNOLOGY CO., LTD, priority 2021, published 2025)

How the values were obtained:
[1] = tested on: melanoma B16; assay: Example 12: humanized PD-1 subcutaneous xenograft tumor model of melanoma B16; format: in vivo, mouse; conditions: intratumor injection, RB0004 10 mg/kg, 2′,3′-cGAMP 0.1 mg/kg; for TGI %: day 7
Method: (§1) Tumor cells were cultured and passaged, cells were collected at the logarithmic phase, and formulated into a concentration of (1.0×10^7) per milliliter of cell suspension with 0.1 ml (with a cell number of 1.0×10^6) being injected into the right flank of the mice, the tumor grew to a diameter of about 5 mm within about 10 days, and the model was successfully established, they were randomly divided into 8 groups with 8 mice per group.
After successfully establishing a humanized PD-1 subcutaneous xenograft tumor model of melanoma B16 in mice, they were randomly grouped with 6-8 mice per group and administered once every two days, a total of 3 times.

[2] = tested on: colorectal carcinoma MC38; assay: Example 9: MC38 xenograft, 2′,3′-cGAMP administered firstly, RB0005 after 48 hours; format: in vivo, mouse; conditions: 2′,3′-cGAMP 1 mg/kg i.t. Day 1, 3, 5; RB0005 1 mg/kg i.p. Day 3, 5, 7
Method: as §1
(§2) Trend of changes in body weight and tumor volume of mice, survival rate of mice, and inhibitory rate of anatomical tumor weight.
(§3) Drug interaction coefficient: CDI(CI)=AB/A*B. AB is the ratio of the combination group of two drugs to the control group, as calculated based on the anatomical tumor weight. A or B is the ratio of single drug group to control group.
(§4) After successfully establishing a humanized PD-1 subcutaneous xenograft tumor model of colorectal carcinoma MC38 in mice, they were randomly grouped with 6-8 mice per group and administered once every two days, a total of 3 times.

[3] = tested on: colorectal carcinoma MC38; assay: Example 7.2.3: MC38 subcutaneous xenograft, PD-L1 inhibitor Tecentriq or RB0005 and 2′,3′-cGAMP; format: in vivo, mouse; conditions: intratumor injection, 1 mg/kg each, every other day, 3 times
Method: as §1, §2
(§5) After successfully establishing a subcutaneous xenograft tumor model of colorectal carcinoma MC38 in mice, they were randomly grouped with 6-8 mice per group and administered once every two days, a total of 3 times.

[4] = tested on: colorectal carcinoma MC38; assay: Example 5: humanized CD274 cell subcutaneous xenograft tumor model of colorectal carcinoma MC38, routes and dosage forms; format: in vivo, mouse; conditions: every other day, 3 times
Method: as §1, §2, §3
After successfully establishing a humanized CD274 cell subcutaneous xenograft tumor model of colorectal carcinoma MC38 in mice, they were randomly grouped with 6-8 mice per group and administered once every two days, a total of 3 times.

[5] = tested on: colorectal carcinoma MC38; assay: Example 2: humanized PD-1 subcutaneous xenograft tumor model of colorectal carcinoma MC38, RB0004 and 2′,3′-cGAMP; format: in vivo, mouse; conditions: 2′,3′-cGAMP 3 mg/kg i.t.; RB0004 10 mg/kg i.p.; every other day
Method: as §1, §2
After successfully establishing a humanized PD-1 subcutaneous xenograft tumor model of colorectal carcinoma MC38 in mice, they were randomly grouped with 8 mice per group and administered once every two days.

[6] = tested on: colorectal carcinoma MC38; assay: Example 7.2.1: MC38 subcutaneous xenograft, marketed PD-1 inhibitors and 2′,3′-cGAMP; format: in vivo, mouse; conditions: intratumor injection; PD-1 antibody 10 mg/kg, 2′,3′-cGAMP 1 mg/kg; every other day, 3 times
Method: as §1, §2, §3, §5

[7] = tested on: colorectal carcinoma MC38; assay: Example 3: xenograft tumor model of colorectal carcinoma MC38, RB0005 and different doses of 2′,3′-cGAMP; format: in vivo, mouse; conditions: single drug i.t.: RB0005 1 mg/kg; 2′,3′-cGAMP 1, 3.16, 10 mg/kg
Method: as §1, §2
After successfully establishing a subcutaneous xenograft tumor model in mice, they were randomly grouped with 8 mice per group and administered once every two days.

[8] = tested on: lung carcinoma LLC-1; assay: Example 13: humanized PD-1 subcutaneous xenograft tumor model of lung carcinoma LLC-1; format: in vivo, mouse; conditions: intratumor injection; RB0004 10 mg/kg, 2′,3′-cGAMP 0.1 mg/kg; every other day, 3 times
Method: as §1, §3
After successfully establishing a humanized PD-1 subcutaneous xenograft tumor model of lung carcinoma LLC-1 in mice, they were randomly grouped with 6-8 mice per group and administered once every two days, a total of 3 times.

[9] = tested on: colorectal carcinoma MC38; assay: Example 6: humanized PD-1 subcutaneous xenograft tumor model of colorectal carcinoma MC38, RB0004 and 2′,3′-cGAMP single dosage form; format: in vivo, mouse; conditions: intratumor injection; RB0004 10 mg/kg, 2′,3′-cGAMP 1 mg/kg; every other day, 3 times
Method: as §1, §2, §3, §4

[10] = tested on: colorectal carcinoma MC38; assay: Example 1: subcutaneous xenograft tumor model of colorectal carcinoma MC38 in mice, RB0005 and 2′,3′-cGAMP; format: in vivo, mouse
Method: C57/BL6JNifdc mouse, female, body weight of 17-22 g, aged 6-8 weeks, SPF grade, purchased from Beijing Vital River Laboratory Animal Technology Co., Ltd. [Experimental Animal Quality Certificate No.: SCXK (Beijing) 2016-0006].
as §1, §2, §3
After successfully establishing a subcutaneous xenograft tumor model of colorectal carcinoma MC38 in mice, it was randomly grouped with 6-8 mice per group. The mice were administered once every two days, with a total of three times followed by observation until 15 days.

[11] = tested on: breast carcinoma 4T1; assay: Example 11: humanized CD274 cell subcutaneous xenograft tumor model of breast carcinoma 4T1 in BALBc mice; format: in vivo; conditions: intratumor injection, 1 mg/kg each
Method: as §1, §2, §3
After successfully establishing a humanized CD274 cell subcutaneous xenograft tumor model of breast carcinoma 4T1 in BALBc mice, they were randomly grouped with 6-8 mice per group and administered once every two days, a total of 3 times.

[12] = tested on: colorectal carcinoma MC38; assay: Example 7.2.2: MC38 subcutaneous xenograft, PD-L1 inhibitor Durvalumab and 2′,3′-cGAMP; format: in vivo, mouse; conditions: intratumor injection, 1 mg/kg each, every other day, 3 times
Method: as §1, §2, §3, §5

Q: For `Nc1nc2c(ncn2[C@@H]2O[C@@H]3COP(=O)(O)O[C@H]4[C@@H](O)[C@H](n5cnc6c(N)ncnc65)O[C@@H]4COP(=O)(O)O[C@@H]2[C@@H]3O)c(=O)[nH]1` [2′,3′-cGAMP], which “Day 7-Tumor volume (mm^3)” value [1] is on record?
A: Its value is 578.8 mm^3.

Q: And the TGI % [1]?
A: The TGI % was 59.0%.

Q: And the TGI % ([1]; listed as cGAMP)?
A: Its TGI % is 59%.

Q: What about the “Tumor Weight” value [2] of the same molecule?
A: The value was 1.30 g.

Q: And the “Tumor Weight” value [3]?
A: The value was 0.9 g.

Q: And the “Tumor Weight” value ([4]; intraperitoneal injection, 1 mg/kg (each))?
A: The value was 3.48 g.

Q: What about the “Tumor Weight” value ([4]; intratumor injection, 1 mg/kg each) of the same molecule?
A: Its value is 1.84 g.

Q: And the “inhibition of tumor growth” value [5]?
A: Its value is “can inhibit the growth of tumor”.

Q: And the “Tumor Weight” value [6]?
A: The value was 0.98 g.

Q: And the “inhibition of tumor growth” value [7]?
A: Its value is “can inhibit the growth of tumor”.

Q: And the TGI % [8]?
A: Its TGI % is 47%.

Q: And the “Tumor Weight” value [9]?
A: Its value is 0.84 g.

Q: What about the “inhibition of tumor growth” value ([10]; i.t. 1 mg/kg, anatomical tumor weight vs negative control P<0.01, P<0.001) of the same molecule?
A: Its value is “can significantly inhibit the growth of tumor”.

Q: What about the “survival rates of mice at the endpoint of the experiment” value ([10]; intratumor injection, 1 mg/kg each drug, every other day, 3 times, death = tumor volume >2000 mm^3) of the same molecule?
A: Its value is 75%.

Q: What about the “survival rate at the endpoint of the experiment” value [11] of the same molecule?
A: Its value is 66.7%.

Q: What about the “Tumor Weight” value ([11]; every other day, 3 times) of the same molecule?
A: The value was 0.63 g.

Q: And the “Tumor Weight” value [12]?
A: Its value is 1.74 g.

Q: How did the “IRTW % (tumor weight inhibitory rate)” value [12] turn out when “Durvalumab: marketed PD-L1 inhibitor, anti PD-L1 antibody” was run?
A: The value was 27.7%.

Q: And the “Tumor Weight” value [12]?
A: The value was 2.42 g.

Q: What does the source list for “Sintilimab: marketed PD-1 monoclonal antibody [reference compound]”?
A: IRTW % (tumor weight inhibitory rate) [6]: 3.9%; Tumor Weight [6]: 1.47 g

Q: For Tecentriq: marketed PD-L1 inhibitor, which “IRTW % (tumor weight inhibitory rate)” value [3] is on record?
A: Its value is 62.4%.

Q: And the “Tumor Weight” value [3]?
A: The value was 0.7 g.

Q: How did the “IRTW % (tumor weight inhibitory rate)” value [6] turn out when “Toripalimab: marketed PD-1 monoclonal antibody; G9 of Example 7.2.1, called TERRE in b443 [reference compound]” was run?
A: The value was 49.7%.

Q: And the “Tumor Weight” value [6]?
A: The value was 0.92 g.
